Literature values, collected in patent US20210137911A1, “NOVEL CHRONOTHERAPY BASED ON CIRCADIAN RHYTHMS” (THE TRUSTEES OF THE UNIVERSITY OF PENNSYLVANIA, priority 2014, published 2021).
Where two headings read alike, the source gives them in different places. Residues, ends and D or L forms follow the SMILES beside them.

Details: cited from earlier work
[1] = half-life of top selling therapeutic compounds (Table 1)

With `CCCCC(C)(O)C/C=C/[C@H]1[C@H](O)CC(=O)[C@@H]1CCCCCCC(=O)OC` (mixture of isomers) [Misoprostol] as the compound, how does the “½ Life” value (half-life of therapeutic compound as listed in Table 1) read?
The value was 0.33 h.

Which “½ Life” value (in vivo) does the source give for `N[C@@H]1C[C@H]1c1ccccc1` (racemic) [Tranylcypromine] here?
Its value is 1.5 h.

Which “½ Life” value [1] does the source give for `C[C@]12CC[C@H](O)CC1=CC[C@@H]1[C@@H]2CC[C@]2(C)C(c3cccnc3)=CC[C@@H]12` [Abiraterone] here?
Its value is 5 h.

Which “½ Life” value [1] does the source give for `C[C@H]1O[C@H](O[C@H]2[C@H](O)[C@@H](O)[C@@H](O[C@H]3[C@H](O)[C@@H](O)C(O)O[C@@H]3CO)O[C@@H]2CO)[C@H](O)[C@@H](O)[C@@H]1N[C@H]1C=C(CO)[C@@H](O)[C@H](O)[C@H]1O` (stereo partly drawn) [Acarbose] here?
Its value is 2 h.

For `CCCC(=O)Nc1ccc(OCC(O)CNC(C)C)c(C(C)=O)c1` (stereo not drawn) [Acebutolol], which “½ Life” value [1] is on record?
The value was 3 h.

With `CC(=O)c1ccc2c(c1)N(CCCN(C)C)c1ccccc1S2` [Acepromazine] as the compound, how does the “½ Life” value [1] read?
The value was 3 h.

Which “½ Life” value [1] does the source give for `CC(=O)Nc1ccc(O)cc1` [Acetaminophen] here?
The value was 1 h.

With `CC(=O)Nc1nnc(S(N)(=O)=O)s1` [Acetazolamide] as the compound, how does the “½ Life” value [1] read?
Its value is 3 h.

With `CC(=O)c1ccc(S(=O)(=O)NC(=O)NC2CCCCC2)cc1` [Acetohexamide] as the compound, how does the “½ Life” value [1] read?
Its value is 1.3 h.

For `CC(=O)N[C@@H](CS)C(=O)O` [Acetylcysteine], which “½ Life” value [1] is on record?
The value was 5.6 h.

For `O=C(O[C@H]1C[N+]2(CCCOc3ccccc3)CCC1CC2)C(O)(c1cccs1)c1cccs1` [Aclidinium], which “½ Life” value [1] is on record?
The value was 2.4 h.

For `CN(C)Cc1nnc2n1-c1ccc(Cl)cc1C(c1ccccc1)=NC2` [Adinazolam], which “½ Life” value (in vivo) is on record?
The value was 3 h.

For `COc1ccc2cccc(CCNC(C)=O)c2c1` [Agomelatine], which “½ Life” value [1] is on record?
Its value is 2 h.

Which “½ Life” value [1] does the source give for `Oc1ncnc2[nH]ncc12` [Allopurinol] here?
The value was 1 h.

For `CN(C)CCc1c[nH]c2ccc(CS(=O)(=O)N3CCCC3)cc12` [Almotriptan], which “½ Life” value [1] is on record?
Its value is 3 h.

With `C=CCc1ccccc1OCC(O)CNC(C)C` (stereo not drawn) [Alprenolol] as the compound, how does the “½ Life” value [1] read?
The value was 2 h.

For `NCCCNCCSP(=O)(O)O` [Amifostine], which “½ Life” value [1] is on record?
The value was 0.133 h.

With `NCCCCCC(=O)O` [Aminocaproic Acid] as the compound, how does the “½ Life” value [1] read?
The value was 2 h.

For `NCC(=O)CCC(=O)O` [Aminolevulinic acid], which “½ Life” value [1] is on record?
Its value is 0.7 h.

For `CC(C)c1ccc2oc3nc(N)c(C(=O)O)cc3c(=O)c2c1` [Amlexanox], which “½ Life” value [1] is on record?
The value was 3.5 h.

For `Nc1cc(-c2ccncc2)c[nH]c1=O` [Amrinone], which “½ Life” value [1] is on record?
The value was 5 h.

Which “½ Life” value [1] does the source give for `O=C1CN2Cc3c(ccc(Cl)c3Cl)N=C2N1` [Anagrelide] here?
Its value is 0.5 h.

Which “½ Life” value [1] does the source give for `CN1CCc2cccc3c2[C@H]1Cc1ccc(O)c(O)c1-3` [Apomorphine] here?
The value was 0.66 h.

Which “½ Life” value (in vivo) does the source give for `CC(C)C(=O)O[C@@H](OC(=O)NC[C@H](CC(=O)O)c1ccc(Cl)cc1)C(C)C` [Arbaclofen Placarbil] here?
The value was 0.1 h.

For `Oc1ccc(CCCCNC[C@H](O)c2ccc(O)c(O)c2)cc1` [Arbutamine], which “½ Life” value (in vivo) is on record?
Its value is 0.133 h.

Which “½ Life” value [1] does the source give for `COC(=O)[C@H](Cc1ccccc1)NC(=O)[C@@H](N)CC(=O)O` [Aspartame] (H-Asp-Phe-OMe) here?
The value was 4.3 h.

For `CNCC[C@@H](Oc1ccccc1C)c1ccccc1` [Atomoxetine], which “½ Life” value [1] is on record?
The value was 5 h.

Which “½ Life” value [1] does the source give for `COc1ccc(CC2c3cc(OC)c(OC)cc3CC[N+]2(C)CCC(=O)OCCCCCOC(=O)CC[N+]2(C)CCc3cc(OC)c(OC)cc3C2Cc2ccc(OC)c(OC)c2)cc1OC` (stereo not drawn) [Atracurium] here?
The value was 0.33 h.

With `COc1ccc(CN=c2[nH]c(N3CCC[C@H]3CO)ncc2C(=O)NCc2ncccn2)cc1Cl` [Avanafil] as the compound, how does the “½ Life” value [1] read?
The value was 5.36 h.

For `CNC(=O)c1ccccc1Sc1ccc2c(/C=C/c3ccccn3)n[nH]c2c1` [Axitinib], which “½ Life” value [1] is on record?
The value was 2.5 h.

Which “½ Life” value [1] does the source give for `NCC(CC(=O)O)c1ccc(Cl)cc1` (stereo not drawn) [Baclofen] here?
Its value is 2.5 h.

Which “½ Life” value (in vivo) does the source give for `C[C@H]1C[C@H]2[C@@H]3CCC4=CC(=O)C=C[C@]4(C)[C@@]3(Cl)[C@@H](O)C[C@]2(C)[C@@]1(O)C(=O)CO` [Beclomethasone] here?
Its value is 2.8 h.

For `CCCCNc1ccc(C(=O)OCCOCCOCCOCCOCCOCCOCCOCCOCCOC)cc1` [Benzonatate], which “½ Life” value [1] is on record?
The value was 3 h.

For `CCN(CC)C(=O)C1CN2CCc3cc(OC)c(OC)cc3C2CC1OC(C)=O` (stereo not drawn) [Benzquinamide], which “½ Life” value [1] is on record?
Its value is 1 h.

With `CNCCc1ccccn1` [Betahistine] as the compound, how does the “½ Life” value [1] read?
The value was 3 h.

With `C[C@H]1C[C@H]2[C@@H]3CCC4=CC(=O)C=C[C@]4(C)[C@@]3(F)[C@@H](O)C[C@]2(C)[C@@]1(O)C(=O)CO` [Betamethasone] as the compound, how does the “½ Life” value [1] read?
The value was 5.6 h.

For `CC(C)(Oc1ccc(CCNC(=O)c2ccc(Cl)cc2)cc1)C(=O)O` [Bezafibrate, reference compound], which “½ Life” value [1] is on record?
Its value is 1 h.

For `CCNC(=O)CCC/C=C\C[C@@H]1[C@@H](/C=C/[C@@H](O)CCc2ccccc2)[C@H](O)C[C@@H]1O` [Bimatoprost], which “½ Life” value [1] is on record?
Its value is 0.75 h.

With `Nc1nc(N/N=C/C2CCCCC2)nc2c1ncn2[C@@H]1O[C@H](CO)[C@@H](O)[C@H]1O` [Binodenoson] as the compound, how does the “½ Life” value [1] read?
The value was 0.166 h.

Which “½ Life” value [1] does the source give for `COc1ccccc1Oc1c(NS(=O)(=O)c2ccc(C(C)(C)C)cc2)nc(-c2ncccn2)nc1OCCO` [Bosentan] here?
The value was 5 h.

With `Brc1c(NC2=NCCN2)ccc2nccnc12` [Brimonidine] as the compound, how does the “½ Life” value [1] read?
Its value is 2 h.

Which “½ Life” value [1] does the source give for `CC(C)C[C@H]1C(=O)N2CCC[C@H]2[C@]2(O)O[C@](NC(=O)[C@@H]3C=C4c5cccc6[nH]c(Br)c(c56)C[C@H]4N(C)C3)(C(C)C)C(=O)N12` [Bromocriptine] here?
Its value is 2 h.

With `CCCC1O[C@@H]2C[C@H]3[C@@H]4CCC5=CC(=O)C=C[C@]5(C)[C@H]4[C@@H](O)C[C@]3(C)[C@]2(C(=O)CO)O1` (stereo partly drawn) [Budesonide] as the compound, how does the “½ Life” value [1] read?
The value was 2 h.

With `CCCCNc1cc(C(=O)O)cc(S(N)(=O)=O)c1Oc1ccccc1` [Bumetanide] as the compound, how does the “½ Life” value [1] read?
The value was 1 h.

For `CCCCN1CCCCC1C(=O)Nc1c(C)cccc1C` (stereo not drawn) [Bupivacaine], which “½ Life” value [1] is on record?
Its value is 2.7 h.

Which “½ Life” value [1] does the source give for `Cc1ccc(Cl)c(OCC(O)CNC(C)(C)C)c1` (stereo not drawn) [Bupranolol] here?
Its value is 2 h.

Which “½ Life” value [1] does the source give for `CO[C@H]1C(=O)[C@]2(C)[C@@H](OC)C[C@H]3OC[C@@]3(OC(C)=O)[C@H]2[C@H](OC(=O)c2ccccc2)[C@]2(O)C[C@H](OC(=O)[C@H](O)[C@@H](NC(=O)OC(C)(C)C)c3ccccc3)C(C)=C1C2(C)C` [Cabazitaxel] here?
Its value is 4 h.

Which “½ Life” value (in vivo) does the source give for `Cn1c(=O)c2c(ncn2C)n(C)c1=O` [Caffeine] here?
Its value is 3 h.

For `C=C1/C(=C\C=C2/CCC[C@]3(C)[C@@H]([C@H](C)CCCC(C)(C)O)CC[C@@H]23)C[C@@H](O)C[C@@H]1O` [Calcitriol], which “½ Life” value [1] is on record?
Its value is 5 h.

Which “½ Life” value [1] does the source give for `CCCCCOC(=O)Nc1nc(=O)n([C@@H]2O[C@H](C)[C@@H](O)[C@H]2O)cc1F` [Capecitabine] here?
Its value is 0.75 h.

With `C[C@@](Cc1ccc(O)c(O)c1)(NN)C(=O)O` [Carbidopa] as the compound, how does the “½ Life” value [1] read?
Its value is 1 h.

With `O=NN(CCCl)C(=O)NCCCl` [Carmustine] as the compound, how does the “½ Life” value (in vivo) read?
Its value is 0.25 h.

For `COCc1c(C(C)C)nc(C(C)C)c(/C=C/[C@@H](O)C[C@@H](O)CC(=O)O)c1-c1ccc(F)cc1` [Cerivastatin, reference compound], which “½ Life” value [1] is on record?
The value was 2 h.

What about the half-life (see Table 1) of the same compound?
Its half-life is “less than three”.

For `CC1OC2(CS1)CN1CCC2CC1` (stereo not drawn) [Cevimeline], which “½ Life” value [1] is on record?
The value was 5 h.

With `Cc1cc(C2CCCCC2)n(O)c(=O)c1` [Ciclopirox] as the compound, how does the “½ Life” value [1] read?
The value was 1.7 h.

For `CCOc1cc(N)c([N+](=O)[O-])cc1C(=O)NC1CCN(CC2CC=CCC2)CC1` (stereo not drawn) [Cinitapride], which “½ Life” value [1] is on record?
The value was 3 h.
